Laboratory results: ChEMBL document CHEMBL1909046, “DrugMatrix in vitro pharmacology data”

Assays:
Melanocortin receptor 4 = Melanocortin receptor 4 (Homo sapiens, UniProt P32245); assay type: cell membranes, Membrane; details: hek293; also: in other assays of this panel Not Active means under 50% inhibition at 10 µM
[1] = DRUGMATRIX: Phosphodiesterase PDE3 enzyme inhibition (substrate: [3H]cAMP + cAMP); assay type: tissue-based, Homo sapiens; details: platelet; Not Active = under 50% inhibition at 10 µM
Insulin receptor = Insulin receptor (Rattus norvegicus, UniProt P15127); assay type: cell membranes, Wistar, Liver, Membrane; also: in other assays of this panel Not Active means under 50% inhibition at 10 µM
Chain of Insulin receptor (P15127 27-759 limits assumed): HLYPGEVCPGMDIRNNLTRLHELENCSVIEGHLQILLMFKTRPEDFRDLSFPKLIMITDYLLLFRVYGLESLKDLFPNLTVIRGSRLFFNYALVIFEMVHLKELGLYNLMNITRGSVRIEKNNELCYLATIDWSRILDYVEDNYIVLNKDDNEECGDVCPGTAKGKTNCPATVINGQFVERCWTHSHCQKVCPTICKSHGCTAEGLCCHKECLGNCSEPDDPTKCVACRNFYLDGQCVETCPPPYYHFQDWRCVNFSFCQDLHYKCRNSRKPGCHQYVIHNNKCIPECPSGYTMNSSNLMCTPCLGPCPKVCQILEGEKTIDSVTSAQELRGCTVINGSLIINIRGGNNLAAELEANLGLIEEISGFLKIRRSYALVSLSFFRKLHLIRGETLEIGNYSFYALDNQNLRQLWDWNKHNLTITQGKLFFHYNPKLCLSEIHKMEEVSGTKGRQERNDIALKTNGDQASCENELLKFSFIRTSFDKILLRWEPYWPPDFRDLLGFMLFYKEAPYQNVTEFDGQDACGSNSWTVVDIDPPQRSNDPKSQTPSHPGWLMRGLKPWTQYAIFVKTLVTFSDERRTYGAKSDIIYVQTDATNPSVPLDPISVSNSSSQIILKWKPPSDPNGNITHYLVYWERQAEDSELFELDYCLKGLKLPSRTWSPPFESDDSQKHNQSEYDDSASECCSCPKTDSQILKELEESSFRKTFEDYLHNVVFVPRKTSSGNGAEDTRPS
Chain of Insulin receptor (P15127 764-1383 limits assumed): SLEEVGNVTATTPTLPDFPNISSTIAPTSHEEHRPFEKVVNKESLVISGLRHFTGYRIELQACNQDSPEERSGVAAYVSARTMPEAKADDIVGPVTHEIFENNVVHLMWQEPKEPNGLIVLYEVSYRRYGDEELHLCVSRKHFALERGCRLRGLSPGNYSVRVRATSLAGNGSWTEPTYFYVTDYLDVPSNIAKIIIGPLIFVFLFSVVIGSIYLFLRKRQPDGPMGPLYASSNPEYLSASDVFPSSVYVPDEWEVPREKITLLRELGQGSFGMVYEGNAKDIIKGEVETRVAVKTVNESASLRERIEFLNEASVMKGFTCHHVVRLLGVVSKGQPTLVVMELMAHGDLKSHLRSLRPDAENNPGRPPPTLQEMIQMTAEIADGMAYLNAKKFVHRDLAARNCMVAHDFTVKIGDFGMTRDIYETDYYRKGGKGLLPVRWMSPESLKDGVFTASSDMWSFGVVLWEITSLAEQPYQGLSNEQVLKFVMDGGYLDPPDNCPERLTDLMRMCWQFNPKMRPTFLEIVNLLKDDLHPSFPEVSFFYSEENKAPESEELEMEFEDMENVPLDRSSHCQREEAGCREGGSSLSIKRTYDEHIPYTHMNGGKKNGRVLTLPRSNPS

[2] = DRUGMATRIX: GABAA, Chloride Channel, TBOB radioligand binding (ligand: [3H] TBOB); assay type: cell membranes, Rattus norvegicus, Wistar, Cerebral cortex, Membrane; details: Not Active = under 50% inhibition at 10 µM
Estrogen receptor = target: T1, Estrogen receptor (Homo sapiens, UniProt P03372); details: sf9; also: in other assays of this panel Not Active means under 50% inhibition at 10 µM
T1 sequence (P03372 whole entry): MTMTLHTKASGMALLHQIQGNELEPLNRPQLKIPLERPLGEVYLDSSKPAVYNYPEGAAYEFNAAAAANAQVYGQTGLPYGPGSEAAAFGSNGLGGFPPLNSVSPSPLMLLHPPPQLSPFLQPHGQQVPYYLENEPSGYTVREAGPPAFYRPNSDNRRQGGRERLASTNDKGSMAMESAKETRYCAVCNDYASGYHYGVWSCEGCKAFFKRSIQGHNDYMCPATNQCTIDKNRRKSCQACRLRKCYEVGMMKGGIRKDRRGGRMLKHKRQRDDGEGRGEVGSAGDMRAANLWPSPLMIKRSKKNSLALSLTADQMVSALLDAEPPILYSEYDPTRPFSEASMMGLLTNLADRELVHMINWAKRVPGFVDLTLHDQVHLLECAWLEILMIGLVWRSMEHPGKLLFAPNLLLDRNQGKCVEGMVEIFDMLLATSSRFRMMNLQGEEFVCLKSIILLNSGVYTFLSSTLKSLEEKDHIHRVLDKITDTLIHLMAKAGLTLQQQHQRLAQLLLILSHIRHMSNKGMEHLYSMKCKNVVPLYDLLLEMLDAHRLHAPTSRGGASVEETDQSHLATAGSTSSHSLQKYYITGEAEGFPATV

Cytochrome P450 2E1 = Cytochrome P450 2E1 (Homo sapiens, UniProt P05181); details: bti-tn-5b1-4; also: in other assays of this panel Not Active means under 50% inhibition at 10 µM
Chain of Cytochrome P450 2E1 (P05181 whole entry): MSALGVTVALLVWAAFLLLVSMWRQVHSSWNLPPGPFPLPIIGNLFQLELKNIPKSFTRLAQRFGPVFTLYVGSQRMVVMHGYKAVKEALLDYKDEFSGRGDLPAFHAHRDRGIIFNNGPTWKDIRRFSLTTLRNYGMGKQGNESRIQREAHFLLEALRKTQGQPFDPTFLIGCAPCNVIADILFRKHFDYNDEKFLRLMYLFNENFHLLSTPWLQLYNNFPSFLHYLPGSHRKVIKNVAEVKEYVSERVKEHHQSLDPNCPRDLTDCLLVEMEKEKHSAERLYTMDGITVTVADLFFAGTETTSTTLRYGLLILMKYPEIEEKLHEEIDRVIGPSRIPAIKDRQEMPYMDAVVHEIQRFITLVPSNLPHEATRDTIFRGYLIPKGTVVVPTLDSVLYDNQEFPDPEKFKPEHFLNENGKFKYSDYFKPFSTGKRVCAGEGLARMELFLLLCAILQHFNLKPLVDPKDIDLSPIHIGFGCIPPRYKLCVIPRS

[3] = target: Receptor tyrosine-protein kinase erbB-2 (Homo sapiens, UniProt P04626); experiment: biochemical; assay type: cell-based, Insect cells; details: insect cells
Chain of Receptor tyrosine-protein kinase erbB-2 (P04626 whole entry): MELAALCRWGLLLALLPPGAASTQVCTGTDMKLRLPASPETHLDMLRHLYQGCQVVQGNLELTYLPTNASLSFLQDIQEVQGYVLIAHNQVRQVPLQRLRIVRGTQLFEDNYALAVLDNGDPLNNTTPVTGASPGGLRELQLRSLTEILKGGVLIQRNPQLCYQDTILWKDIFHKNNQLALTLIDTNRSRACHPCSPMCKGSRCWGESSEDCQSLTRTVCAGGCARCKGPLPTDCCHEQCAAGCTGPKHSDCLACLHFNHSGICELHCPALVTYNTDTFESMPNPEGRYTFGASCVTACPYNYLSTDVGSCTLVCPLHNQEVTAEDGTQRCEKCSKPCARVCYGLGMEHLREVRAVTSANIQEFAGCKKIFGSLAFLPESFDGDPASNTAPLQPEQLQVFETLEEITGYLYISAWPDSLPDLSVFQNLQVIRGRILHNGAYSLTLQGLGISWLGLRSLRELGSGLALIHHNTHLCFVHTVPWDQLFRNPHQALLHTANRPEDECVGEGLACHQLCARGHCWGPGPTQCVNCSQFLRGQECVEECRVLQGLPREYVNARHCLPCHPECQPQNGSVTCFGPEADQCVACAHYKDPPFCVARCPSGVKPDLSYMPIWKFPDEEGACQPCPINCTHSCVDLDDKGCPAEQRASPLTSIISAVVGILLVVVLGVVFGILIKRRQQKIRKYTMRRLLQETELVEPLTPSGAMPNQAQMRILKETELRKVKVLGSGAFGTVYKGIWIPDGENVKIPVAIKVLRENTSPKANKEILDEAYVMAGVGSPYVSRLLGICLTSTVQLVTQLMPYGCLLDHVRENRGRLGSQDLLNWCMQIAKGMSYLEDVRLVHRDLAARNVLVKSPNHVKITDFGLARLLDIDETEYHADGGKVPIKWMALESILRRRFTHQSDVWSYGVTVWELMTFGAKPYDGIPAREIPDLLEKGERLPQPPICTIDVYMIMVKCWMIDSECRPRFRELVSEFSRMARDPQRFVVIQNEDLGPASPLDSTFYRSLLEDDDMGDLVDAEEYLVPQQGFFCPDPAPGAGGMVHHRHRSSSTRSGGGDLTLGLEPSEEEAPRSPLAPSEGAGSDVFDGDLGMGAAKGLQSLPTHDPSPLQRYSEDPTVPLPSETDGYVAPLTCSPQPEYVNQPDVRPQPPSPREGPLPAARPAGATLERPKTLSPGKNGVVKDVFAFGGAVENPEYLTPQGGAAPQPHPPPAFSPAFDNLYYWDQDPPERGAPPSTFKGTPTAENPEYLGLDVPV

[4] = target: T2, Receptor-type tyrosine-protein phosphatase C (Homo sapiens, UniProt P08575); design: species or system Escherichia coli
T2 sequence (P08575 whole entry): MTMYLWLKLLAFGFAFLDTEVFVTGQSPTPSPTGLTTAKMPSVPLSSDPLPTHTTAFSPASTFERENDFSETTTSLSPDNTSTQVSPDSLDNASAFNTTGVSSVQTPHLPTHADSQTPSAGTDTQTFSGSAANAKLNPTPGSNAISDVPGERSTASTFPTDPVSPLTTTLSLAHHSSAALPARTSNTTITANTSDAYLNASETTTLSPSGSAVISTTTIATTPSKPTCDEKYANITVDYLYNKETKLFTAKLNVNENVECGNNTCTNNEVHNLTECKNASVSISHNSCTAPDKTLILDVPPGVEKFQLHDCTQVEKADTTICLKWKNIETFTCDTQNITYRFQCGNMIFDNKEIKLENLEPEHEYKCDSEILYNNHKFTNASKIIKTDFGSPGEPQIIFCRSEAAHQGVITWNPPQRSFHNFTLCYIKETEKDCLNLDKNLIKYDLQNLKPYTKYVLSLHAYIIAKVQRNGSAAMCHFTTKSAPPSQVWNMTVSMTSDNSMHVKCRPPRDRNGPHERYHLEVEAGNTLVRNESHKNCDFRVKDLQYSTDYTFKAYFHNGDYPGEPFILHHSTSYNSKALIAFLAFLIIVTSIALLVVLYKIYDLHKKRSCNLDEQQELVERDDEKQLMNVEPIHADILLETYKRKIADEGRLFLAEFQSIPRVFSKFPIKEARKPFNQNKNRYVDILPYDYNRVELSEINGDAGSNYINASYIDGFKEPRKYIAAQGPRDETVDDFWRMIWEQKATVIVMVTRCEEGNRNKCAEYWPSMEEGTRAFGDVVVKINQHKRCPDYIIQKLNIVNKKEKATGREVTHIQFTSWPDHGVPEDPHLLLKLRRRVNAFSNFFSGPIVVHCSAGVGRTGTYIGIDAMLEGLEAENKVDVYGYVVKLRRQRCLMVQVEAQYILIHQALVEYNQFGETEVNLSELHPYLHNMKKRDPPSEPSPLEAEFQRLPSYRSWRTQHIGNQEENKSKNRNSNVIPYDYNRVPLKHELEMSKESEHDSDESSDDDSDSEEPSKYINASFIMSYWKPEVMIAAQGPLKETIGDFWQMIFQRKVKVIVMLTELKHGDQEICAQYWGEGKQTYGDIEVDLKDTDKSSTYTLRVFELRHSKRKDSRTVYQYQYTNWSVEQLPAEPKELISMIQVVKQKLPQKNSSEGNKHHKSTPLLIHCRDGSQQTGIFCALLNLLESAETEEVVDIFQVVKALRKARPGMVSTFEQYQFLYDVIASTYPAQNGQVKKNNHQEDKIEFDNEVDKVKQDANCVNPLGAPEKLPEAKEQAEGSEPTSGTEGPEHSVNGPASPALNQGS

[5] = target: T3, C-X-C chemokine receptor type 2 (Homo sapiens, UniProt P25025); assay type: cell membranes, Membrane; details: cho-k1; also: in other assays of this panel Not Active means under 50% inhibition at 10 µM
T3 sequence (P25025 whole entry): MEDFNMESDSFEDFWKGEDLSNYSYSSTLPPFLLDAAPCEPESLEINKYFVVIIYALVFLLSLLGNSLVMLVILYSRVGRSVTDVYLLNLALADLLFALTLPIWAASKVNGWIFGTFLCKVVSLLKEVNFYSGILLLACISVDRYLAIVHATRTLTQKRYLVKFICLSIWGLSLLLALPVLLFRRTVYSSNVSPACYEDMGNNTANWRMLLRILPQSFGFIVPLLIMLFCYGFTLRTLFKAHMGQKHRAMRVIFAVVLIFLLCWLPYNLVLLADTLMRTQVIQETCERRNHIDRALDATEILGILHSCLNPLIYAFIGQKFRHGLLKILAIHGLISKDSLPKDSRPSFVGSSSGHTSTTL

Chain of Melanocortin receptor 4 (P32245 whole entry): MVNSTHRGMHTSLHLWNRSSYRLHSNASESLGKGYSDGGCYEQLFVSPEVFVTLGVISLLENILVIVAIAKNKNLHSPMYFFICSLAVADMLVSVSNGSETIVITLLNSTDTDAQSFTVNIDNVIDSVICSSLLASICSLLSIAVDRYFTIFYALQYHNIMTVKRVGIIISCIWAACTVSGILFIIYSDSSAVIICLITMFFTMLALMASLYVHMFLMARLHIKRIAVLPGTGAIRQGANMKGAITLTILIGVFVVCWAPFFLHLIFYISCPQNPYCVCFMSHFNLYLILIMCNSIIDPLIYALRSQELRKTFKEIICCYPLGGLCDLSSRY

COc1ccc2[nH]c([S+]([O-])Cc3ncc(C)c(OC)c3C)nc2c1 (stereo unspecified) [OMEPRAZOLE]
Not Active: IC50 (Melanocortin receptor 4) | IC50 [1] | Ki [1] | IC50 (Insulin receptor) | IC50 [2] | Ki [2] | IC50 (Estrogen receptor) | IC50 (Cytochrome P450 2E1) | Ki (Cytochrome P450 2E1) | IC50 [3] | IC50 [4] | IC50 [5]

Cc1nccn1CC1CCc2c(c3ccccc3n2C)C1=O (stereo unspecified) [ONDANSETRON]
Not Active: IC50 (Melanocortin receptor 4) | IC50 [1] | Ki [1] | IC50 (Insulin receptor) | IC50 [2] | Ki [2] | IC50 (Estrogen receptor) | IC50 (Cytochrome P450 2E1) | Ki (Cytochrome P450 2E1) | IC50 [3] | IC50 [4] | IC50 [5]

CCCCOc1ccc(OCCCN2CCOCC2)cc1 [PRAMOXINE]
Not Active: IC50 (Melanocortin receptor 4) | IC50 [1] | Ki [1] | IC50 (Insulin receptor) | IC50 [2] | Ki [2] | IC50 (Estrogen receptor) | IC50 (Cytochrome P450 2E1) | Ki (Cytochrome P450 2E1) | IC50 [3] | IC50 [4] | IC50 [5]

NC(=O)c1cnccn1 [PYRAZINAMIDE]
Not Active: IC50 (Melanocortin receptor 4) | IC50 [1] | Ki [1] | IC50 (Insulin receptor) | IC50 [2] | Ki [2] | IC50 (Estrogen receptor) | IC50 (Cytochrome P450 2E1) | Ki (Cytochrome P450 2E1) | IC50 [3] | IC50 [4] | IC50 [5]

OC(CCN1CCCCC1)(c1ccccc1)C1CCCCC1 (stereo unspecified) [TRIHEXYPHENIDYL]
Not Active: IC50 (Melanocortin receptor 4) | IC50 [1] | Ki [1] | IC50 (Insulin receptor) | IC50 [2] | Ki [2] | IC50 (Estrogen receptor) | IC50 (Cytochrome P450 2E1) | Ki (Cytochrome P450 2E1) | IC50 [3] | IC50 [4] | IC50 [5]

Cc1cc2cc3c(C)cc(=O)oc3c(C)c2o1 [TRIOXSALEN]
Not Active: IC50 (Melanocortin receptor 4) | IC50 [1] | Ki [1] | IC50 (Insulin receptor) | IC50 [2] | Ki [2] | IC50 (Estrogen receptor) | IC50 (Cytochrome P450 2E1) | Ki (Cytochrome P450 2E1) | IC50 [3] | IC50 [4] | IC50 [5]

CCCC(CCC)C(=O)O [VALPROIC ACID]
Not Active: IC50 (Melanocortin receptor 4) | IC50 [1] | Ki [1] | IC50 (Insulin receptor) | IC50 [2] | Ki [2] | IC50 (Estrogen receptor) | IC50 (Cytochrome P450 2E1) | Ki (Cytochrome P450 2E1) | IC50 [3] | IC50 [4] | IC50 [5]

CCC1=C[C@@H]2CN(C1)Cc1c([nH]c3ccccc13)[C@@](C(=O)OC)(c1cc3c(cc1OC)N(C)[C@H]1[C@@](O)(C(=O)OC)[C@H](OC(C)=O)[C@]4(CC)C=CCN5CC[C@]31[C@@H]54)C2 [VINORELBINE]
Not Active: IC50 (Melanocortin receptor 4) | IC50 [1] | Ki [1] | IC50 (Insulin receptor) | IC50 [2] | Ki [2] | IC50 (Estrogen receptor) | IC50 (Cytochrome P450 2E1) | Ki (Cytochrome P450 2E1) | IC50 [3] | IC50 [4] | IC50 [5]
